Measured values reported in patent publication US20230055705A1, “SUBSTITUTED THIOPHENE CARBOXAMIDES AND DERIVATIVES THEREOF” (Bayer Aktiengesellschaft, priority 2019, published 2023).

Assays:
Alternaria alternata = Alternaria alternata in vitro cell test; type: cell-based; conditions: 120 h, 20 ppm of active ingredient, 5 days incubation, read-out: efficacy (inhibition of fungal growth)
Description: (§1) • Solvent: DMSO • Culture medium: 14.6 g anhydrous D-glucose (VWR), 7.1 g Mycological Peptone (Oxoid), 1.4 g granulated Yeast Extract (Merck), QSP 1 liter • Inoculum: spores suspension
(§2) Fungicides were solubilized in DMSO and the solution used to prepare the required range of concentrations. The final concentration of DMSO used in the assay was ≤[…]1%.
A spore suspension of A. alternata was prepared and diluted to the desired spore density.
(§3) Fungicides were evaluated for their ability to inhibit spore germination and mycelium growth in liquid culture assay. The compounds were added in the desired concentration to the culture medium with spores. After 5 days incubation, fungi-toxicity of compounds was determined by spectrometric measurement of mycelium growth. Inhibition of fungal growth was determined by comparing the absorbance values in wells containing the fungicides with the absorbance in control wells without fungicides.

Uromyces appendiculatus = assay: In vivo preventive test on Uromyces appendiculatus (bean rust); conditions: 240 h, evaluated 10 days after inoculation, read-out: efficacy; for pest or weed control at 125 ppm: 125 ppm of active ingredient; for pest or weed control at 500 ppm: 500 ppm of active ingredient
In short: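 Young bean plants sprayed with compound in acetone/DMSO/Tween diluted in water, inoculated 72 h later with U. appendiculatus spore suspension. Held 24 h at 20 °C, 100% RH, then 9 days at 20 °C, 70-80% RH. Efficacy scored 10 days post-inoculation versus solvent-treated controls (0% = control, 100% = no disease).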

[1] = tested on: Xanthomonas campestris pv. campestris; assay: In vivo preventive test on Xanthomonas campestris pv. campestris (black rot on cabbage); conditions: evaluated 8 or 10 days after inoculation, read-out: efficacy; for pest or weed control at 31 ppm: 31 ppm of active ingredient; for pest or weed control at 125 ppm: 125 ppm of active ingredient
In short: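 Young cabbage plants sprayed with compound in acetone/DMSO/Tween diluted in water; solvent-only controls. Leaves sprayed with bacterial suspension 72 h later, then held 8 or 10 days at 27° C and 95% relative humidity. Efficacy scored 8 or 10 days post-inoculation, 0% matching controls, 100% meaning no disease.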

[2] = tested on: Pseudomonas syringae pv. tomato; assay: Pseudomonas syringae pv. tomato in vitro cell test; type: cell-based; conditions: 20 ppm of active ingredient, 24 h incubation, read-out: efficacy (inhibition of bacteria growth)
In short: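 Bacterial suspension pre-cultured and diluted to set OD in LB broth, incubated 24 h with compounds (DMSO, 1% final). Growth read spectrometrically; inhibition calculated from absorbance versus untreated control wells.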

[3] = tested on: Pseudomonas syringae pv. tomato; assay: In vivo preventive test on Pseudomonas syringae pv. tomato (bacterial speck on tomato); conditions: evaluated 5 or 6 days after inoculation, read-out: efficacy; for pest or weed control at 500 ppm: 500 ppm of active ingredient; for pest or weed control at 31 ppm: 31 ppm of active ingredient
In short: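 Young tomato plants sprayed with compound in acetone/DMSO/Tween diluted in water; solvent-only controls. Inoculated 72 h later by spraying leaves with bacterial suspension; 4 days saturated atmosphere then 1–2 days at 70–80% RH, 22 °C day/20 °C night. Efficacy scored 5–6 days post-inoculation, 0% = control, 100% = no disease.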

[4] = tested on: Colletotrichum lindemuthianum; assay: Colletotrichum lindemuthianum in vitro cell test; type: cell-based; conditions: 144 h, 20 ppm of active ingredient, 6 days incubation, read-out: efficacy (inhibition of fungal growth)
Description: as §1, §2
A spore suspension of C. lindemuthianum was prepared and diluted to the desired spore density.
as §3, with “inhibit spores” for “inhibit spore”, “After 6” for “After 5”

[5] = tested on: Xanthomonas campestris pv. campestris; assay: Xanthomonas campestris pv. campestris in vitro cell test; type: cell-based; conditions: 20 ppm of active ingredient, 24 h incubation, read-out: efficacy (inhibition of bacteria growth)
In short: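 Bacteria from a liquid pre-culture, diluted to a set OD, were grown in LB broth with compound at the required concentrations (final DMSO ≤1%). After 24 h, growth was read spectrometrically. Inhibition was derived from absorbance versus compound-free controls.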

[6] = LogP by HPLC on reversed phase columns (EEC directive 79/831 Annex V.A8); type: physicochemical
In short: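 Reversed-phase HPLC per EEC directive 79/831 Annex V.A8. Calibrated with straight-chain alkan-2-ones (C3–C16) of known LogP, LogP from retention times by linear interpolation between successive alkanones. Lambda-max taken from UV spectra (200–400 nm) at chromatographic peak maxima.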

[7] = reversed phase HPLC columns, method [a]: LC-UV, in an acidic range, with 0.1% formic acid in water and acetonitrile as eluent (linear gradient from 10% to 95% acetonitrile)
[8] = reversed phase HPLC columns, given in the preparation examples, method not marked
[9] = reversed phase HPLC columns, method [a]: LC-UV, acidic range, 0.1% formic acid in water and acetonitrile as eluent (linear gradient 10% to 95% acetonitrile)

chromatographic logP [6, 7] | chromatographic logP [6, 8] | chromatographic logP [6, 9] | Compound | inhibition at 20 ppm (Alternaria alternata) [%] | pest or weed control at 125 ppm (Uromyces appendiculatus) [%] | pest or weed control at 500 ppm (Uromyces appendiculatus) [%] | pest or weed control at 31 ppm [1] [%] | inhibition at 20 ppm [2] [%] | pest or weed control at 500 ppm [3] [%] | inhibition at 20 ppm [4] [%] | inhibition at 20 ppm [5] [%] | pest or weed control at 125 ppm [1] [%] | pest or weed control at 31 ppm [3] [%] | chromatographic logP ([6]; method [a]: LC-UV, acidic range, 0.1% formic acid in water and acetonitrile as eluent (linear gradient 10% to 95% acetonitrile))
1.73 | – | – | COC(=O)[C@H](CCCNC(=N)N)NC(=O)c1sc(Cl)c(Cl)c1Cl [I.008] | ≤ 30 | 70 to 79 | 90 to 100 | 80 to 89 | ≤ 30 | 70 to 79 | ≤ 30 | ≤ 30 | – | – | –
3.31 | – | – | CCOC(=O)C(C#N)NC(=O)c1sc(Cl)c(Cl)c1Cl (stereo not shown) [I.009] | ≤ 30 | 90 to 100 | 90 to 100 | 90 to 100 | ≤ 30 | 90 to 100 | ≤ 30 | ≤ 30 | 90 to 100 | – | –
1.5 | – | – | COC(=O)C(Cc1c[nH]cn1)NC(=O)c1sc(Cl)c(Cl)c1Cl (stereo not shown) [I.012] | – | – | 90 to 100 | 80 to 89 | ≤ 30 | – | ≤ 30 | ≤ 30 | – | ≥ 70 | –
2.16 | – | – | COC(=O)[C@H](CC(N)=O)NC(=O)c1sc(Cl)c(Cl)c1Cl [I.015] | ≤ 30 | 80 to 89 | – | 90 to 100 | ≤ 30 | – | ≤ 30 | ≤ 30 | – | 80 to 89 | –
3.55 | – | – | COC(=O)C(CC(F)F)NC(=O)c1sc(Cl)c(Cl)c1Cl (stereo not shown) [I.016] | ≤ 30 | 90 to 100 | 90 to 100 | 90 to 100 | ≤ 30 | 90 to 100 | ≤ 30 | ≤ 30 | – | 70 to 79 | –
3.17 | 3.17 | – | O=C(O)CNC(=S)c1sc(Cl)c(Cl)c1Cl [I.022, N-[(3,4,5-trichloro-2-thienyl)carbonothioyl]glycine] | ≤ 30 | – | 90 to 100 | – | ≤ 30 | 90 to 100 | ≤ 30 | ≤ 30 | – | – | –
4.05 | 4.05 | – | COC(=O)CNC(=S)c1sc(Cl)c(Cl)c1Cl [I.038, methyl N-[(3,4,5-trichloro-2-thienyl)carbonothioyl]glycinate] | ≤ 30 | – | 90 to 100 | 80 to 89 | ≤ 30 | 70 to 79 | ≤ 30 | ≤ 30 | 80 to 89 | – | –
2.35 | – | – | CCOC(=O)C(CC(N)=O)NC(=O)c1sc(Cl)c(Cl)c1Cl (stereo not shown) [I.046] | ≤ 30 | 90 to 100 | 90 to 100 | 90 to 100 | ≤ 30 | – | ≤ 30 | ≤ 30 | 90 to 100 | – | –
4.27 | – | – | CCOC(=O)C(CC(F)(F)F)NC(=O)c1sc(Cl)c(Cl)c1Cl (stereo not shown) [I.048] | ≤ 30 | 90 to 100 | 90 to 100 | – | ≤ 30 | 70 to 79 | ≤ 30 | ≤ 30 | 90 to 100 | – | –
3.5 | – | – | C[C@H](NC(=S)c1sc(Cl)c(Cl)c1Cl)C(=O)O [I.113] | ≤ 30 | 90 to 100 | 90 to 100 | 80 to 89 | ≤ 30 | – | ≤ 30 | ≤ 30 | – | – | –
2.16 | – | – | C[C@H](NC(=O)c1sc(Cl)c(Cl)c1Cl)C(N)=O [I.119] | ≤ 30 | 90 to 100 | 90 to 100 | – | ≤ 30 | 90 to 100 | ≤ 30 | ≤ 30 | – | 70 to 79 | –
– | – | – | COC(=O)[C@H](CSC(=O)N(C)C)NC(=O)c1sc(Cl)c(Cl)c1Cl [I.142] | ≤ 30 | 90 to 100 | – | 80 to 89 | ≤ 30 | – | – | ≤ 30 | 90 to 100 | 70 to 79 | 3.56
– | – | 4.29 | CCOC(=O)C(CSC)NC(=O)c1sc(Cl)c(Cl)c1Cl (stereo not shown) [I.143] | ≤ 30 | 90 to 100 | – | 90 to 100 | ≤ 30 | – | ≤ 30 | ≤ 30 | 80 to 89 | 90 to 100 | –
– | – | 3.28 | COC(=O)C[C@H](NC(=O)c1sc(Cl)c(Cl)c1Cl)C(=O)OC [I.144] | ≤ 30 | 90 to 100 | – | 80 to 89 | ≤ 30 | – | – | ≤ 30 | – | 80 to 89 | –
